Consider four compounds from patent US6242439A, “Azetidinone derivatives for the treatment of HCMV infections” (Boehringer Ingelheim (Canada) Ltd., priority 1998, dated 2001).

A word on the IC50: it is the concentration that inhibits the measured activity by half. The term EC50 denotes the midpoint of the concentration-response curve.

One data set addresses HCMV NO protease (Human cytomegalovirus, UniProt P16753). The data set can be described thus: HCMV NO Protease Assay (inhibition of cleavage of internally quenched fluorogenic peptide substrate). The following applies: 100 nM HCMV NO protease, 5 μM substrate, 2.5 h at 30°, pH 8. In kind it is biochemical. As for the experimental part:
This particular assay determines the ability of a test compound to inhibit the activity of HCMV protease. More specifically, in the assay described herein, the inhibitory activity of the test compound is evaluated on the basis of its ability to interfere with the HCMV No protease cleavage of a fluorogenic peptide substrate which in turn is based on the maturation cleavage site of the enzyme.
A. HCMV NO Protease Assay
Material & Methods: Fluorescence measurements were recorded on a Perkin-Elmer LS-50B spectrofluorimeter equipped with a plate reader accessory. UV measurements were recorded on a Thermomax® microplate reader from Molecular Devices Corporation, Menlo Park, Calif., USA.
HCMV NO protease was assayed with an internally quenched fluorogenic substrate based on the maturation cleavage site (Abz-[…](3-NO2)R--OH, kcat /KM =260 M^-1 s^-1). The fluorescence increase upon cleavage of the Ala-Ser amide bond was monitored using excitation λ=312 nm (slit 2.5 nm) and emission λ=415 nm (slit 5 nm). A protocol adaptable to a 96-well plate format was designed for the determination of IC50 values of inhibitors. […] After this period, enzymatic hydrolysis of the fluorogenic substrate in the absence of inhibitor led to about a 30% conversion. Quenching was not required before fluorescence measurement since the total scanning time by the plate reader accessory was brief relative to the duration of the reaction. The aqueous incubation buffer contained 50 mM tris(hydroxymethyl)aminomethane.HCl pH 8, 0.5M Na2 SO4, 50 mM NaCl, 0.1 mM EDTA, 1 mM tris(2-carboxyethyl)phosphine.HCl, 3% v/v DMSO and 0.05% w/v casein. The final concentrations of HCMV NO protease (expressed in terms of total monomer concentration) and substrate were 100 nM and 5 μM respectively. IC50 values were obtained through fitting of the inhibition curve to a competitive inhibition model using SAS NLIN procedure. The mode of inhibition was determined by measurements of the initial rates (in cuvettes) at various substrate concentrations in the buffer as described above. The IC50 values listed in the following tables the IC50 were obtained according to this assay.

For data set [1], the system named is HCMV (strain AD169, ATCC VR-538). The data set is described as follows: Plaque Reduction Assay (PRA). It counts as cell-based, human cytomegalovirus (HCMV). The note with it: Hs-68 cells, approximately 50 PFU HCMV AD169, 8 days at 37°, read-out: EC50. As for the experimental part:
B. Plaque Reduction Assay (PRA)
Hs-68 cells (ATCC #CRL 1635) were seeded in 12-well plates at 83,000 cells/well in 1 mL of DMEM medium (Gibco Canada Inc.) supplemented with 10% fetal bovine serum (FBS, Gibco Canada Inc.). The plates were incubated for 3 days at 37° to allow the cells to reach 80-90% confluency prior to the assay.
The medium was removed from the cells by aspiration. The cells were then infected with approximately 50 PFU of HCMV (strain AD169, ATCC VR-538) in DMEM medium supplemented with 5% inactivated FBS (assay medium). (DMEM medium is commercially available and has been described by R. Dulbecco et al., Virology 1959, 8, 396.) The virus was allowed to adsorb to cells for 2 h at 37°. Following viral adsorption, the medium was removed from the wells by aspiration. The cells were then incubated with or without 1 mL of appropriate concentrations of test reagent in assay medium. Occasionally, test compounds were added 24 h post-infection. After 4 days of incubation at 37°, the medium was exchanged with fresh medium containing test compound and 4 days later the cells were fixed with 1% aqueous formaldehyde and stained with a 2% violet solution in 20% ethanol in water. Microscopic plaques were counted using a stereomicroscope. Drug effects were calculated as a percent reduction in the number of plaques in the presence of each drug concentration compared to the number observed in the absence of drug. Ganciclovir was used as a positive control in all experiments.

Data set [2] in a line: Cytotoxic effects, tetrazolium salt (MTT) metabolic assay. It counts as cell-based. The following applies: read-out: TC50 (the source's name). As for the experimental part:
In conjunction with the appropriate starting materials and intermediates, the procedures of examples 1 to 11 can be used to prepare other compounds of formula 1. Examples of compounds thus prepared are listed in the following Tables I, II and III together with mass spectrum data for the compounds, and results from the assays A and B of example 12. Cytotoxic effects noted as TC50 in the following tables were determined according to the tetrazolium salt (MTT) metabolic assay, F. Denizot and F. Lang, J. Immun. Meth., 1986, 89, 271.

Setting [3] is: Human betaherpesvirus 5, AD169, Hs68, 192 h.

Like-named read-outs stand apart in the source and are kept apart here.

Chain of HCMV NO protease (P16753 1-256): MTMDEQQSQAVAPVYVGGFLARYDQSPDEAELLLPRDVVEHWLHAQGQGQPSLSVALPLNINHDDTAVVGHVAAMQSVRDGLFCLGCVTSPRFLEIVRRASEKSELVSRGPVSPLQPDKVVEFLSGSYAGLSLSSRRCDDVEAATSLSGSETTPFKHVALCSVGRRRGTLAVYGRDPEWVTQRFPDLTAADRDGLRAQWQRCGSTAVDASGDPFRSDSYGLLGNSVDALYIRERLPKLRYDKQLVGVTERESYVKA

Compound `O=C1C[C@H](Cc2ccccc2)N1C(=O)Nc1ccncc1` [Entry 107] displayed an IC50 on HCMV NO protease of 1.9 µM. Besides, the EC50 in data set [1] (setting [3]) is above 250 µM. In addition, the CC50 in data set [2] is above 250 µM.

Turning to `CN(Cc1cccc([N+](=O)[O-])c1)C(=O)N1C(=O)C[C@@H]1Cc1ccccc1` [Entry 133], inhibition against HCMV NO protease was half-maximal at 6.9 µM (IC50). Besides, the EC50 in data set [1] (setting [3]) came to 170 µM. For the same compound, the CC50 in data set [2] is above 250 µM.

`O=C1C[C@H](Cc2ccccc2)N1C(=O)NCc1ccc2c(c1)OCO2` [Entry 111]: the IC50 against HCMV NO protease was found to be 3.7 µM. For the same compound, the 50% effective concentration (EC50) in data set [1] (setting [3]) is above 150 µM. The CC50 in data set [2] is above 150 µM.

Consider `CN(Cc1ccc(C(F)(F)F)cc1)C(=O)N1C(=O)C[C@@H]1Cc1nccs1` [Entry 218, 4(R)-(2-Thiazolylmethyl)-2-oxoazetidine-1-carboxylic acid N-methyl-N-{{(4-trifluoromethyl)phenyl}methyl}amide], for which the IC50 at HCMV NO protease worked out at 5.5 µM. Also, the concentration for a half-maximal effect (EC50) in data set [1] came out at 78 µM. Further, the CC50 in data set [2] is 178 µM.
